Molecular target: T1, Solute carrier family 12 member 5 (Homo sapiens, UniProt Q9H2X9)
T1 sequence (Q9H2X9 whole entry): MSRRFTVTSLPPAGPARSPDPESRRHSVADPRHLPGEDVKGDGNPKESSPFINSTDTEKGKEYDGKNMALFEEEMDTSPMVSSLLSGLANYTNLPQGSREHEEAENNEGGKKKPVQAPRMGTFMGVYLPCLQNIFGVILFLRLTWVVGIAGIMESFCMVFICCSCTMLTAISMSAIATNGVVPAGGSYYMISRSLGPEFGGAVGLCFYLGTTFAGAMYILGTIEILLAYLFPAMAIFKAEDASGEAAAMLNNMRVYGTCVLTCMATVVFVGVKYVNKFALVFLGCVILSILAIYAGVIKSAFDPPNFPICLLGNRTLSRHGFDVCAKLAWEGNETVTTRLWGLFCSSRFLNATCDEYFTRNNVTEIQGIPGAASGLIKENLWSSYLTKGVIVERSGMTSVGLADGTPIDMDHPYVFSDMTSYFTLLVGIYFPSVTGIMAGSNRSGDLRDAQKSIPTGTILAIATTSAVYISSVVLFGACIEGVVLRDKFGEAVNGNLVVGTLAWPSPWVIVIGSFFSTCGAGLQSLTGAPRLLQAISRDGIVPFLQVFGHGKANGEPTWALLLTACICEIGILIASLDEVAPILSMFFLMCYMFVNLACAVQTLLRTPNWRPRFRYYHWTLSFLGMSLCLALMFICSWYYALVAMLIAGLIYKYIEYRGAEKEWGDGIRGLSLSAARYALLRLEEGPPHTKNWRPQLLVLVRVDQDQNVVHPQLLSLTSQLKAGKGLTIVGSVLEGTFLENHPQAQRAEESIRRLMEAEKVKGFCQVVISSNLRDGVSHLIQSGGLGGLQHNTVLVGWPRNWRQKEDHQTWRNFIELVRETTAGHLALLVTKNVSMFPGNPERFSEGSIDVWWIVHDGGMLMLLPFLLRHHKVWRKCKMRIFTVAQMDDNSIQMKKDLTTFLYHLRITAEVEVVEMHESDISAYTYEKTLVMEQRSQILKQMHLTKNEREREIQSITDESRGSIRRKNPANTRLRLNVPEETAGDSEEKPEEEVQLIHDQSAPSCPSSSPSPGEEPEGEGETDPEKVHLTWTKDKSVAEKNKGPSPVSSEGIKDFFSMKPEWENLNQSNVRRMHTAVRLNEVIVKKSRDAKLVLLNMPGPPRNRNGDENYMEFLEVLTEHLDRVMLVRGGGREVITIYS
Experiment: KCC2 and NKCC1 inhibition by rubidium flux, cell-based, NKCC1 counter-screen (AID 1734)

IC50: 300 nM
SMILES: CCOc1ccc(-n2c(O)c3c(c2O)C(C=Cc2ccccc2)c2sc(=O)[nH]c2S3)cc1 (stereo unspecified)

Reference: BindingDB's records for doi:10.7270/Q2ZP44H3 (Vanderbilt Screening Center For Gpcrs, Ion Channels and …, 2009)
